{"source": "patent US20260234178A1", "about": "“PYRANOSIDE COMPOUNDS AND METHODS” (JAMES COOK UNIVERSITY, priority 2022, published 2026)", "type_in_all_cases": "cell-based", "key": {"IFN-γ [1]": {"test_system": "IFN-γ", "test": "Cytokine suppression assay, P/I-stimulated PBMC: IFN-γ release", "conditions": "10 μg/mL; P/I-stimulated human PBMC; 20 h treatment; relative to stimulated control", "excerpt": "(§1) PBMCs from four healthy donors were isolated from buffy coats using Lymphoprep™ density gradient medium ([sequence] Technologies, Vancouver, Canada), according to the manufacturer's instructions. Isolated cells were cryopreserved in 90% heat-inactivated foetal calf serum (FCS) (Bovogen Biologicals) with 10% dimethyl sulfoxide (DMSO; Sigma-Aldrich, St. Louis, MO, USA) using vapour phase nitrogen until required. On the day of the experiment, PBMCs were thawed and removed from the freezing medium by washing with 9 mL pre-warmed culture medium and centrifugation at 300×g for 5 min. An R10 culture medium of RPMI-1640 media without L-glutamine (Gibco Thermo Fisher Scientific, Waltham, MA, USA), supplemented with 10% heat-inactivated foetal bovine serum (FBS; Bovogen Biologicals, Christchurch, New Zealand), 10,000 units/mL of penicillin+10,000 μg/mL of streptomycin (Thermo Fisher Scientific), and 1× GlutaMAX (Thermo Fisher Scientific) was used for all experiments. […] After incubation, the enzyme was removed by two additional washes with R10. Thawed PBMCs were counted using a CASY cell counter (Roche Innovatis, Germany), and cell densities were adjusted to seed 100,000 cells/well into 96-well plates in a final volume of 100 μL culture medium.\n(§2) For our cytokine suppression assays, inflammatory cytokines (IFN-γ, IL-17A, IL-8, and TNF) were induced in two ways. First, the PBMCs from three donors were activated with a cell stimulation cocktail of 50 ng/mL phorbol 12-myristate 13-acetate and 1 μg/mL ionomycin (P/I; eBioscience). P/1-stimulated cells were treated with 10 μg/mL of U. metrosideros compounds, PCE, CsA (Sigma-Aldrich), or remained untreated. Second, the PBMCs from four donors were cultured in the presence of Dynabeads Human T-Activator CD3/CD28 (Gibco) at a cell-to-bead ratio of 1:1. […] On the day of the experiment, cytokine concentrations were determined using a standard LEGENDplex™ human inflammation panel 1 (BioLegend®), LSRFortessa (BD), and LEGENDplex™ software (version 2022-02-10, Qognit, Inc.)."}, "IL-17A [2]": {"test_system": "IL-17A", "test": "Cytokine suppression assay, anti-CD3/anti-CD28 (Dynabead)-stimulated PBMC: IL-17A release", "conditions": "10 μg/mL; anti-CD3/anti-CD28-stimulated human PBMC; 20 h", "excerpt": "as §1, §2"}, "IL-8": {"test_system": "IL-8", "test": "Cytokine suppression assay, anti-CD3/anti-CD28 (Dynabead)-stimulated PBMC: IL-8 release", "conditions": "10 μg/mL; anti-CD3/anti-CD28-stimulated human PBMC; 20 h", "excerpt": "(§3) PBMCs from four healthy donors were isolated from buffy coats using Lymphoprep™ density gradient medium ([sequence] Technologies, Vancouver, Canada), according to the manufacturer's instructions. Isolated cells were cryopreserved in 90% heat-inactivated foetal calf serum (FCS) (Bovogen Biologicals) with 10% dimethyl sulfoxide (DMSO; Sigma-Aldrich, St. Louis, MO, USA) using vapour phase nitrogen until required. On the day of the experiment, PBMCs were thawed and removed from the freezing medium by washing with 9 mL pre-warmed culture medium and centrifugation at 300×g for 5 min. […] Thawed PBMCs were counted using a CASY cell counter (Roche Innovatis, Germany), and cell densities were adjusted to seed 100,000 cells/well into 96-well plates in a final volume of 100 μL culture medium.\n(§4) For our cytokine suppression assays, inflammatory cytokines (IFN-γ, IL-17A, IL-8, and TNF) were induced in two ways. […] On the day of the experiment, cytokine concentrations were determined using a standard LEGENDplex™ human inflammation panel 1 (BioLegend®), LSRFortessa (BD), and LEGENDplex™ software (version 2022-02-10, Qognit, Inc.)."}, "IL-17A [3]": {"test_system": "IL-17A", "test": "Cytokine suppression assay, P/I-stimulated PBMC: IL-17A release", "conditions": "10 μg/mL; P/I-stimulated human PBMC; 20 h treatment; relative to stimulated control", "excerpt": "as §3, §4"}, "IFN-γ [4]": {"test_system": "IFN-γ", "test": "Cytokine suppression assay, anti-CD3/anti-CD28 (Dynabead)-stimulated PBMC: IFN-γ release", "conditions": "10 μg/mL; anti-CD3/anti-CD28-stimulated human PBMC; 20 h", "excerpt": "as §3, §4"}}}
{"compound": "CC1=CC(=O)CC(C)(C)[C@@]1(O)/C=C/[C@@H](C)O[C@@H]1O[C@H](CO)[C@@H](O)[C@H](O)[C@H]1O", "note": "[Compound 3, (6S,9R)-roseoside]", "values": [{"measurement": "suppression of IFN-γ secretion", "setting": "IFN-γ [1]", "value": 64.4, "unit": "%"}, {"measurement": "suppression of Dynabead-induced IL-17A secretion", "setting": "IL-17A [2]", "value": 38.2, "unit": "%"}]}
{"compound": "CC1=CC[C@@H](C(C)(C)O[C@@H]2O[C@H](COC(=O)c3cc(O)c(O)c(O)c3)[C@@H](O)[C@H](O)[C@H]2O)CC1", "note": "[Compound 5, (4S)-α-terpineol 8-O-β-D-(6-O-galloyl)glucopyranoside]", "values": [{"measurement": "suppression of IFN-γ secretion", "setting": "IFN-γ [1]", "value": 79.6, "unit": "%"}, {"measurement": "inhibition of IL-8 release", "setting": "IL-8", "value": 24.3, "unit": "%"}, {"measurement": "reduction of IL-17A levels", "setting": "IL-17A [3]", "value": 60.9, "unit": "%"}, {"measurement": "suppression of Dynabead-induced IL-17A secretion", "setting": "IL-17A [2]", "value": 53.7, "unit": "%"}, {"measurement": "suppression of Dynabead-induced IFN-γ secretion", "setting": "IFN-γ [4]", "value": 59.3, "unit": "%"}]}
{"compound": "galloyl-lawsoniaside A [Compound 4]", "values": [{"measurement": "suppression of IFN-γ secretion", "setting": "IFN-γ [1]", "value": 95.3, "unit": "%"}, {"measurement": "inhibition of IL-8 release", "setting": "IL-8", "value": 40.5, "unit": "%"}, {"measurement": "reduction of IL-17A levels", "setting": "IL-17A [3]", "value": 79.1, "unit": "%"}, {"measurement": "suppression of Dynabead-induced IL-17A secretion", "setting": "IL-17A [2]", "value": 80.9, "unit": "%"}, {"measurement": "suppression of Dynabead-induced IFN-γ secretion", "setting": "IFN-γ [4]", "value": 78.5, "unit": "%"}]}
